Results from US20140309192A1, “MODULATORS OF THE G PROTEIN-COUPLED MAS RECEPTOR AND THE TREATMENT OF DISORDERS RELATED THERETO” (ARENA PHARMACEUTICALS, INC., priority 2011, published 2014).

target: T1, rat Mas receptor (Rattus norvegicus, UniProt P12526); test: HTRF IP1 assay, HEK293 cells expressing rat Mas receptor; assay type: cell-based; conditions: HTRF IP1 assay, rat Mas receptor (Table B.1); read-out: IC50
T1 construct: expressed in transfected cells; host or cells: HEK293 (ATCC CRL-1573)
T1 sequence (P12526 1-324): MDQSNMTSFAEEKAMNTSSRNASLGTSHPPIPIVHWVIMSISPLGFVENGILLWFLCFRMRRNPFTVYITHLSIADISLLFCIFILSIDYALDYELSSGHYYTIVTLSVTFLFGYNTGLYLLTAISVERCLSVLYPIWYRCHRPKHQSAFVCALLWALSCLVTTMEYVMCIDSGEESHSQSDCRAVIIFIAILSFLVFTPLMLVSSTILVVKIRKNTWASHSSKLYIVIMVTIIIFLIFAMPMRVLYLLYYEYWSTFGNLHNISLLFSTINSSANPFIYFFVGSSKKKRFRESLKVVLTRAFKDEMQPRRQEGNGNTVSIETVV
From the text: (§1) Human and rat Mas receptors were either transiently or stably expressed in HEK293 cells. For transient transfections, human or rat Mas in pHM6 vector were transfected into HEK293 cells using Lipofectamine® (Invitrogen #18324-012). HEK293 cells transfected with empty pHM6 vector were used as a control. For generation of stable cell lines, cDNA expression plasmids encoding human or rat Mas genes and the neo^r gene were transfected into HEK293 cells (ATCC# CRL-1573) using Lipofectamine® (Invitrogen) according to the manufacturer's instructions. Stable receptor expressing pools were then generated over 3 weeks by standard techniques in the presence of 500 μg/mL Geneticin® (Gibco). Individual receptor stable pools were dilution cloned using standard techniques and clones were comparatively evaluated in inositol phosphate accumulation assays. Preferred clones were banked and cultured as needed. HEK293 cells were used as controls. The 384 well IP-One HTRF® Assay (Cisbio #62P1APEJ) was performed as described by the manufacturer's protocol. Cells were plated in at 100,000 cells per well in 15 μL DMEM (Gibco #11960) and incubated in a CO2 incubator at 37° C. for 2 h. Five μL of compounds diluted in 2× stimulation buffer plus 0.4% BSA (Sigma (#A3059) were added to each well and serial diluted IP1 standards (Cisbio #62IP1CDA) were also added to corresponding wells at this step. After the cells were incubated for 4 h in a CO2 incubator at 37° C., d2-labeled IP1 and cryptate-labeled anti-IP1 monoclonal antibody diluted in lysis buffer were added sequentially in 10 μL per well and the assay plates were kept in the dark at room temperature overnight. Ratiometric measurements of fluorescence emission at 665 nm and 620 nm were obtained using a Pherastar fluorometer (BMG Labtech). IP1 levels in each well were calculated according to the standard curves on each plate. IC50 values were obtained by fitting data to a nonlinear curve-fitting program (GraphPad Software, Inc., La Jolla Calif.).

Point of comparison: `CCOC(=O)CN1Cc2ccc(C(=O)Nc3ccc(Cl)cc3N3CCN(CCC(F)(F)F)CC3)cc2C1` [Compound 27, Ethyl 2-(5-(4-chloro-2-(4-(3,3,3-trifluoropropyl)piperazin-1-yl)phenylcarbamoyl)isoindolin-2-yl)acetate], IC50 650 nM. Against it:
- O=C(Nc1ccc(Cl)cc1N1CCN(CCC(F)(F)F)CC1)c1ccc2c(c1)CN(CCCO)CC2 [Compound 16, N-(4-Chloro-2-(4-(3,3,3-trifluoropropyl)piperazin-1-yl)phenyl)-2-(3-hydroxypropyl)-1,2,3,4-tetrahydroisoquinoline-7-carboxamide] — 2.1-fold lower, 316 nM
- O=C(Nc1ccc(Cl)cc1N1CCN(CCC(F)(F)F)CC1)c1ccc(N2CCCC2)cc1 [Compound 41, N-(4-Chloro-2-(4-(3,3,3-trifluoropropyl)piperazin-1-yl)phenyl)-4-(pyrrolidin-1-yl)benzamide] — within 1.5-fold, 582 nM
- O=C(Nc1ccc(Cl)cc1N1CCN(CCC(F)(F)F)CC1)c1ccc(CN2CCC(CO)CC2)cc1F [Compound 54, N-(4-Chloro-2-(4-(3,3,3-trifluoropropyl)piperazin-1-yl)phenyl)-2-fluoro-4-((4-(hydroxymethyl)piperidin-1-yl)methyl)benzamide] — within 1.5-fold, 497 nM

target: T2, human Mas receptor (Homo sapiens, UniProt P04201); test: HTRF IP1 assay, HEK293 cells expressing human Mas receptor; assay type: cell-based; conditions: HTRF IP1 assay, human Mas receptor (Table B.2); read-out: IC50
T2 construct: expressed in transfected cells; host or cells: HEK293 (ATCC CRL-1573)
T2 sequence (P04201 1-325): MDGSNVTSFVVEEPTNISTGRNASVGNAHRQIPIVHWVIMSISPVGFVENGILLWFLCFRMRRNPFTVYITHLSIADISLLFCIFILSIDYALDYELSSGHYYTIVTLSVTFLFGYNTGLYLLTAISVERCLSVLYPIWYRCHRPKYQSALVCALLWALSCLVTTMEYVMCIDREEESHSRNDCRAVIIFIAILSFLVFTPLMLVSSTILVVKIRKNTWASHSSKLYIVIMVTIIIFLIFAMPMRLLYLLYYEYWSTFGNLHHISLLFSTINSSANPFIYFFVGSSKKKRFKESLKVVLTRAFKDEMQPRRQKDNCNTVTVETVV
From the text: as §1

Point of comparison: `N#CCCNCc1ccc(C(=O)Nc2ccc(Cl)cc2N2CCN(CCC(F)(F)F)CC2)c(F)c1F` [Compound 235, N-(4-Chloro-2-(4-(3,3,3-trifluoropropyl)piperazin-1-yl)phenyl)-4-((2-cyanoethylamino)methyl)-2,3-difluorobenzamide], IC50 39.1 nM. Against it:
- O=C(Nc1ccc(Cl)cc1N1CCN(CCC(F)(F)F)CC1)c1ccc2c(c1)CNCC2 [Compound 13, N-(4-Chloro-2-(4-(3,3,3-trifluoropropyl)piperazin-1-yl)phenyl)-1,2,3,4-tetrahydroisoquinoline-7-carboxamide] — 2.3-fold higher, 88.2 nM
- CC(C)(C)CCN1CCc2ccc(C(=O)Nc3ccc(Cl)cc3N3CCN(CCC(F)(F)F)CC3)cc2C1 [Compound 17, N-(4-Chloro-2-(4-(3,3,3-trifluoropropyl)piperazin-1-yl)phenyl)-2-(3,3-dimethylbutyl)-1,2,3,4-tetrahydroisoquinoline-7-carboxamide] — 9.9-fold higher, 386 nM
- NC(=O)CCN1CCc2ccc(C(=O)Nc3ccc(Cl)cc3N3CCN(CCC(F)(F)F)CC3)cc2C1 [Compound 20, 2-(3-Amino-3-oxopropyl)-N-(4-chloro-2-(4-(3,3,3-trifluoropropyl)piperazin-1-yl)phenyl)-1,2,3,4-tetrahydroisoquinoline-7-carboxamide] — 16-fold higher, 610 nM
- NCc1ccc(C(=O)Nc2ccc(Cl)cc2N2CCN(CCC(F)(F)F)CC2)c(F)c1 [Compound 26, 4-(Aminomethyl)-N-(4-chloro-2-(4-(3,3,3-trifluoropropyl)piperazin-1-yl)phenyl)-2-fluorobenzamide] — 2.2-fold higher, 87.3 nM
- NC(=O)[C@@H]1CCCN1Cc1ccc(C(=O)Nc2ccc(Cl)cc2N2CCN(CCC(F)(F)F)CC2)c(F)c1 [Compound 56, (S)-1-(4-(4-Chloro-2-(4-(3,3,3-trifluoropropyl)piperazin-1-yl)phenylcarbamoyl)-3-fluorobenzyl)pyrrolidine-2-carboxamide] — within 1.5-fold, 56.1 nM
- NC(=O)[C@H](CO)NCc1ccc(C(=O)Nc2ccc(Cl)cc2N2CCN(CCC(F)(F)F)CC2)c(F)c1 [Compound 76, (S)-4-((1-Amino-3-hydroxy-1-oxopropan-2-ylamino)methyl)-N-(4-chloro-2-(4-(3,3,3-trifluoropropyl)piperazin-1-yl)phenyl)-2-fluorobenzamide] — 1.7-fold higher, 68.2 nM
- O=C1CN(Cc2ccc(C(=O)Nc3ccc(Cl)cc3N3CCN(CCC(F)(F)F)CC3)c(F)c2F)CCN1 [Compound 167, N-(4-Chloro-2-(4-(3,3,3-trifluoropropyl)piperazin-1-yl)phenyl)-2,3-difluoro-4-((3-oxopiperazin-1-yl)methyl)benzamide] — within 1.5-fold, 35.3 nM
- O=C(Nc1cc(Cl)c(Cl)cc1N1CCN(CCC(F)(F)F)CC1)c1ccc(CN2CCS(=O)(=O)CC2)c(F)c1F [Compound 186, N-(4,5-Dichloro-2-(4-(3,3,3-trifluoropropyl)piperazin-1-yl)phenyl)-2,3-difluoro-4-((1,1-dioxo-thiomorpholin-4-yl)methyl)benzamide] — within 1.5-fold, 49.1 nM
- O=C(Nc1ccc(Cl)cc1N1CCN(CCC(F)(F)F)CC1)c1ccc(CNCc2nn[nH]n2)c(F)c1F [Compound 200, 4-(((2H-Tetrazol-5-yl)methylamino)methyl)-N-(4-chloro-2-(4-(3,3,3-trifluoropropyl)piperazin-1-yl)phenyl)-2,3-difluorobenzamide] — within 1.5-fold, 41.7 nM
- O=C(O)CNCc1ccc(C(=O)Nc2ccc(Cl)cc2N2CCN(CCC(F)(F)F)CC2)c(F)c1F [Compound 202, 2-(4-(4-Chloro-2-(4-(3,3,3-trifluoropropyl)piperazin-1-yl)phenylcarbamoyl)-2,3-difluorobenzylamino)acetic acid] — 2.4-fold higher, 92.1 nM
- O=C(O)CC1CNCCN1Cc1ccc(C(=O)Nc2ccc(Cl)cc2N2CCN(CCC(F)(F)F)CC2)c(F)c1F (centres unmarked) [Compound 226, 2-(1-(4-(4-Chloro-2-(4-(3,3,3-trifluoropropyl)piperazin-1-yl)phenylcarbamoyl)-2,3-difluorobenzyl)piperazin-2-yl)acetic acid] — 2.4-fold higher, 93.9 nM
- NC(=O)[C@@H](COP(=O)(O)O)NCc1ccc(C(=O)Nc2ccc(Cl)cc2N2CCN(CCC(F)(F)F)CC2)c(F)c1F [Compound 250, (R)-3-Amino-2-(4-(4-chloro-2-(4-(3,3,3-trifluoropropyl)piperazin-1-yl)phenylcarbamoyl)-2,3-difluorobenzylamino)-3-oxopropyl dihydrogenphosphate] — 6.9-fold lower, 5.7 nM
- O=C(Nc1ccc(Cl)cc1N1CCN(CCC(F)(F)F)CC1)c1ccc2c(c1)CN(C(=O)c1cccnc1)CC2 [Compound 259, N-(4-Chloro-2-(4-(3,3,3-trifluoropropyl)piperazin-1-yl)phenyl)-2-nicotinoyl-1,2,3,4-tetrahydroisoquinoline-7-carboxamide] — 2.8-fold higher, 108 nM
- NC1(C(=O)NCc2ccc(C(=O)Nc3ccc(Cl)cc3N3CCN(CCC(F)(F)F)CC3)c(F)c2F)CCSCC1 [Compound 284, 4-Amino-N-(4-(4-chloro-2-(4-(3,3,3-trifluoropropyl)piperazin-1-yl)phenylcarbamoyl)-2,3-difluorobenzyl)tetrahydro-2H-thiopyran-4-carboxamide] — within 1.5-fold, 57.2 nM
- O=C(O)CCC(=O)NCc1ccc(C(=O)Nc2ccc(Cl)cc2N2CCN(CCC(F)(F)F)CC2)c(F)c1F [Compound 293, 4-(4-(4-Chloro-2-(4-(3,3,3-trifluoropropyl)piperazin-1-yl)phenylcarbamoyl)-2,3-difluorobenzylamino)-4-oxobutanoic acid] — 2.6-fold higher, 103 nM
- O=C(Nc1ccc(Cl)cc1N1CCN(CCC(F)(F)F)CC1)c1ccc(CNC(=O)[C@H]2CC[C@@H](O)CC2)c(F)c1F [Compound 330, N-(4-Chloro-2-(4-(3,3,3-trifluoropropyl)piperazin-1-yl)phenyl)-2,3-difluoro-4-(((1s,4s)-4-hydroxycyclohexanecarboxamido)methyl)benzamide] — 3.3-fold lower, 11.7 nM
- O=C(Nc1ccc(Cl)cc1N1CCN(CCC(F)(F)F)CC1)c1ccc(CNC(=O)[C@H]2CC[C@@H](OP(=O)(O)O)CC2)c(F)c1F [Compound 392, (1s,4s)-4-(4-(4-Chloro-2-(4-(3,3,3-trifluoropropyl)piperazin-1-yl)phenylcarbamoyl)-2,3-difluorobenzylcarbamoyl)cyclohexyl dihydrogen phosphate] — 6.4-fold lower, 6.13 nM
- O=C(Nc1ccc(Cl)cc1N1CCN(CCC(F)(F)F)CC1)c1ccc(CN2C(=O)CNC2=O)c(F)c1F [Compound 428, N-(4-Chloro-2-(4-(3,3,3-trifluoropropyl)piperazin-1-yl)phenyl)-4-((2,5-dioxoimidazolidin-1-yl)methyl)-2,3-difluorobenzamide] — 1.9-fold higher, 73.3 nM
